In US20240391954A1, “MC4R AGONIST PEPTIDES” (The Regents of the University of Michigan, priority 2021, published 2024):
pEC50: −log10 of the molar value. Read-outs that look alike come from different tables or passages of the source. Positions of bridges follow the written chain, without caps; N, C: chain ends. Non-standard residues stand in square brackets, D forms with d. Residues, ends and D or L forms follow the SMILES beside them. dPhe(4-Br) = N[C@H](Cc1ccc(Br)cc1)C(=O)O; dPhe(4-F) = N[C@H](Cc1ccc(F)cc1)C(=O)O; Cit = NC(=O)NCCC[C@H](N)C(=O)O; Nle = CCCC[C@H](N)C(=O)O; dAbu = CC[C@@H](N)C(=O)O; Aib = CC(C)(N)C(=O)O

Tests used:
[1] = biological target: T1, human MC3R (Homo sapiens, UniProt P41968); assay: split-luciferase cAMP sensor assay, agonist mode (measurement window 1), hMC3R; assay type: cell-based; settings: for Emax / pEC50: agonist mode; for Emax: read-out: MC3R cAMP % max activation; for pEC50: HEK-293 cells stably expressing hMC3R, read-out: MC3R cAMP EC50; for MC4R selectivity vs MC3R: MC4R versus MC3R
T1 construct: expressed in transfected cells; host or cells: HEK-293 cells stably expressing the GScAMP22F split-luciferase cAMP sensor (parent reporter line from Promega); MC3R clone generated in-house, G418 selection
T1 sequence (P41968 whole entry): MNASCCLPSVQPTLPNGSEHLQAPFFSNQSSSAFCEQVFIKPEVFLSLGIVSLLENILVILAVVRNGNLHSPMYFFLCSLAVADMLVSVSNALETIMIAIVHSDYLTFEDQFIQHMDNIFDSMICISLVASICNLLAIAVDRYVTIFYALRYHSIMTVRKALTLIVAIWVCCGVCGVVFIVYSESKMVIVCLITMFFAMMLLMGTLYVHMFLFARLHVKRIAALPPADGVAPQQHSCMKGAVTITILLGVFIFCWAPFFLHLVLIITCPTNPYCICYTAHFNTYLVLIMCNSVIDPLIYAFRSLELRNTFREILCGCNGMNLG
Summary of the method: (§1)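 EC50 values come from a four-parameter variable-slope fit of luminescence in measurement window 1, capturing direct peptide effects on receptor-expressing cells with a cAMP22f luciferase sensor. Cells were preloaded with 4% D-luciferin, serum-free medium; 20 μM forskolin normalized for cell number and transducer efficiency.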

[2] = biological target: T2, human MC4R (Homo sapiens, UniProt P32245); assay: split-luciferase cAMP sensor assay, agonist mode (measurement window 1), hMC4R; assay type: cell-based; settings: for Emax / pEC50: agonist mode; for Emax: read-out: MC4R cAMP % max activation; for pEC50: read-out: MC4R cAMP EC50
T2 construct: host or cells: HEK-293 cells stably expressing the GScAMP22F split-luciferase cAMP sensor and hMC4R, G418 selection
T2 sequence (P32245 whole entry): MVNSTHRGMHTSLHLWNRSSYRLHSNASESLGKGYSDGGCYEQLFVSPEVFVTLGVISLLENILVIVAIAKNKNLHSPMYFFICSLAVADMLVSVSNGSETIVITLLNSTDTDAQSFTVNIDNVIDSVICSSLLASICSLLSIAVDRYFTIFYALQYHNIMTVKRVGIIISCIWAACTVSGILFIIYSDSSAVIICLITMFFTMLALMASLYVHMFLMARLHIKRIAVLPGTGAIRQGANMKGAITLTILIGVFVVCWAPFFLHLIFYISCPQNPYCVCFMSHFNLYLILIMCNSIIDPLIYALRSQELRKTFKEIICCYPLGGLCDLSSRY
Summary of the method: as §1

[3] = biological target: T3, human MC1R (Homo sapiens, UniProt Q01726); assay: split-luciferase cAMP sensor assay, agonist mode, hMC1R; assay type: cell-based; settings: MC4R versus MC1R
T3 construct: expressed in transfected cells; host or cells: HEK-293 cells stably expressing hMC1R and the GScAMP22F cAMP sensor
T3 sequence (Q01726 whole entry): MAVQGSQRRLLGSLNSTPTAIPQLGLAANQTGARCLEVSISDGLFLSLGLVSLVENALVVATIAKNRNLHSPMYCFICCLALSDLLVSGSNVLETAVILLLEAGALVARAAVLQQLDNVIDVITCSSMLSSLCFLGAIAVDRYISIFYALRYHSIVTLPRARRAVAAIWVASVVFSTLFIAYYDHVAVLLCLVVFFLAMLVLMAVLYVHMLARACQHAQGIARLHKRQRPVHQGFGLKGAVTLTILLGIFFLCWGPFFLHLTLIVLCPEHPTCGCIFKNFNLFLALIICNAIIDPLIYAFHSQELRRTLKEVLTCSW
Summary of the method: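 HEK-293 cells stably expressing hMC1R and the GScAMP22F split-luciferase cAMP sensor, preloaded 120 min at 37° C with D-luciferin in serum-free medium. Peptide responses were taken as peak luminescence over 2-13 min minus 2-min baseline, normalized to the α-MSH ECmax. EC50 was obtained from a four-parameter variable-slope fit.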

[4] = Mouse plasma stability; assay type: in vitro ADME; settings: 37° C.; for half-life at 1 µM: pooled mouse plasma
Protocol: FIG. 3. Results of plasma stability testing for control peptides. Compounds shown were incubated in mouse plasma at 37° C. at 1 μM concentrations. 40 ul aliquots were removed at the times indicated and the reactions stopped with the addition of 160 μL cold acetonitrile containing 200 ng/ml of peptide internal standard (IS). The incubation solution was centrifuged at 3500 rpm for 10 minutes to precipitate protein. LC/MS/MS analysis was used to determine the % peptide remaining.
Pooled mouse plasma was prepared and stored at −80° C, prior to use, 396 μL mouse plasma was incubated at 37° C. for 5 minutes in 1.5 mL microcentrifuge tubes. 4 μL of 100 μM test or control compound/peptide was added to each tube and incubated for 0.5, 15, 30, 60, 120, or 240 minutes. An aliquot of 40 μL of each reaction was stopped by the addition of 4 volume of cold acetonitrile containing 200 ng/mL of […] solution was centrifuged at 3500 rpm for 10 minutes to precipitate protein. The supernatant was used for LC/MS/MS analysis. The natural log peak area ratio (compound peak area/internal standard peak area) was plotted against time and the gradient of the line determined.

[5] = Plasma protein binding (Centrifree ultrafiltration); assay type: in vitro ADME
Protocol: Solutions of test compound in DMSO were prepared at 1 mM, 100 uM and 10 uM, 5 ul of each solution of test compound was added to 495 uL plasma, and incubated at 25° C. for 5 min. Sample was added to a Centrifree® device, then centrifuged at 2000× g for 20 min to obtain desired filtrate volume. Initial plasma samples and ultrafiltrates were subjected to LC-MS/MS. % Free peptide=(concentration of ultrafiltrates/concentration of plasma)×100%. % Bound=100%−% Free

[6] = HEK-293 cells stably expressing hMC4R

Structure (SMILES)	Emax ([1]; % maximal activation)	MC4R selectivity vs MC3R [1]	Emax ([2]; % maximal activation)	MC4R selectivity vs MC1R [3]	half-life at 1 µM [4]	fraction unbound at 5 min, 0.1 µM ([5]; 0.1 uM)	fraction unbound at 5 min, 1 µM ([5]; 1.0 uM)	fraction unbound at 5 min, 10 µM ([5]; 10.0 uM)	Emax ([1]; hMC3R stable cell line)	MC4R selectivity vs MC1R [2]	MC4R selectivity vs MC3R [2]	Emax ([2]; hMC4R stable cell line)	further results
CCCC[C@H](NC(=O)[C@H](CCCNC(=N)N)NC(C)=O)C(=O)N[C@H]1CSSC[C@@H](C(N)=O)NC(=O)[C@H](Cc2c[nH]c3ccccc23)NC(=O)[C@H](CCCNC(=N)N)NC(=O)[C@@H](Cc2ccccc2)NC(=O)[C@H](CCCNC(=N)N)NC1=O [CTX-1228, Arg-Nle-cyclo(Cys-Arg-D-Phe-Arg-Trp-Cys)] (Ac-R[Nle]CR[dF]RWC-NH2; disulfide 3-8 (inferred))	93%	8.38	102%	3.16	0.917 h	0.63	0.61	0.61	–	–	–	–	pEC50 [1]: 8.80
CC(=O)N[C@@H](CCCNC(=N)N)C(=O)N[C@H]1CSSC[C@@H](C(N)=O)NC(=O)[C@@H](Cc2c[nH]c3ccccc23)NC(=O)[C@H](CCCNC(=N)N)NC(=O)[C@@H](Cc2ccc(F)cc2)NC(=O)[C@H](CCCNC(=N)N)NC(=O)[C@@H](C)NC1=O [CTX-1236, Arg-cyclo(Cys-D-Ala-Arg-D-Phe(4-F)-Arg-D-Trp-Cys)] (Ac-RC[dA]R[dPhe(4-F)]R[dW]C-NH2; disulfide 2-8)	–	–	–	–	–	–	–	–	66%	2.01	1.36	97%	pEC50 ([2]; hMC4R stable cell line): 8.72; half-life [4]: 3.78 h; fraction unbound at 0.1 uM ([5]; 0.1 uM): 0.55; fraction unbound ([5]; 1.0 uM, read-out: Protein Binding 1.0 uM (converted)): 0.51; fraction unbound ([5]; 10.0 uM, read-out: Protein Binding 10.0 uM (converted)): 0.49
CC[C@H]1NC(=O)[C@@H](NC(=O)[C@H](CCCNC(=N)N)NC(C)=O)CSSC[C@@H](C(N)=O)NC(=O)[C@@H](Cc2c[nH]c3ccccc23)NC(=O)[C@H](CCCNC(=N)N)NC(=O)[C@@H](Cc2ccc(Br)cc2)NC(=O)[C@H](CCCNC(=N)N)NC1=O [CTX-1247, Arg-cyclo(Cys-D-Abu-Arg-D-Phe(4-Br)-Arg-D-Trp-Cys)] (Ac-RC[dAbu]R[dPhe(4-Br)]R[dW]C-NH2; disulfide 2-8 (inferred))	–	–	–	–	3.32 h	0.51	0.47	0.47	13%	0.43	2.05	75%	pEC50 ([2]; hMC4R stable cell line): 8.48
COc1ccc(C[C@H]2NC(=O)[C@H](CCCNC(=N)N)NC(=O)[C@@H](C)NC(=O)[C@@H](NC(=O)[C@H](CCCNC(=N)N)NC(C)=O)CSSC[C@@H](C(N)=O)NC(=O)[C@@H](Cc3c[nH]c4ccccc34)NC(=O)[C@H](CCCNC(=N)N)NC2=O)cc1 [CTX-1238, Arg-cyclo(Cys-D-Ala-Arg-D-Tyr(O-Me)-Arg-D-Trp-Cys)] (Ac-RC[dA]R[dY](Me)R[dW]C-NH2; disulfide 2-8 (inferred))	–	–	–	–	2.87 h	0.47	0.53	0.59	21%	0.44	0.49	79%	–
CC(=O)N[C@@H](CCCNC(=N)N)C(=O)N[C@H]1CSSC[C@@H](C(N)=O)NC(=O)[C@@H](Cc2c[nH]c3ccccc23)NC(=O)[C@H](CCCNC(=N)N)NC(=O)[C@@H](Cc2ccc(Br)cc2)NC(=O)[C@H](CCCNC(=N)N)NC(=O)C(C)(C)NC1=O [CTX-1246, Arg-cyclo(Cys-Aib-Arg-D-Phe(4-Br)-Arg-D-Trp-Cys)] (Ac-RC[Aib]R[dPhe(4-Br)]R[dW]C-NH2; disulfide 2-8 (inferred))	–	–	–	–	> 4 h	0.27	0.56	0.57	21%	–	–	–	–
CC1(C)NC(=O)CSC[C@@H](C(N)=O)NC(=O)[C@H](Cc2ccccc2)NC(=O)[C@H](CCCNC(=N)N)NC(=O)[C@@H](Cc2ccccc2)NC(=O)[C@H](CCCNC(N)=O)NC1=O [CTX-1652, Thioether-cyclo(Aib-Cit-D-Phe-Arg-Phe-Cys)] ({CH2CO}-[Aib][Cit][dF]RFC-NH2; thioether N-6)	–	Not active	–	Not active	–	–	–	–	–	–	–	–	pEC50 [1]: < 5.00; pEC50 [2, 6]: < 5.00
CC(=O)N[C@@H](CCCNC(=N)N)C(=O)N[C@H]1CSSC[C@@H](C(N)=O)NC(=O)[C@H](Cc2c[nH]c3ccccc23)NC(=O)[C@H](CCCNC(=N)N)NC(=O)[C@@H](Cc2ccccc2)NC(=O)[C@H](CCCNC(=N)N)NC(=O)C(C)(C)NC1=O [CTX-1292, Arg-cyclo(Cys-Aib-Arg-D-Phe-Arg-Trp-Cys)] (Ac-RC[Aib]R[dF]RWC-NH2; disulfide 2-8 (inferred))	76%	21	90%	2.46	–	–	–	–	–	–	–	–	–
CCCC[C@H](NC(=O)[C@H](CCCNC(=N)N)NC(C)=O)C(=O)N[C@H]1CSSC[C@@H](C(N)=O)NC(=O)[C@@H](Cc2c[nH]c3ccccc23)NC(=O)[C@H](CCCNC(=N)N)NC(=O)[C@@H](Cc2ccccc2)NC(=O)[C@H](CCCNC(N)=O)NC1=O [CTX-1608, Arg-Nle-cyclo(Cys-Cit-D-Phe-Arg-D-Trp-Cys)] (Ac-R[Nle]C[Cit][dF]R[dW]C-NH2; disulfide 3-8 (inferred))	19%	0.95	79%	2.07	–	–	–	–	–	–	–	–	pEC50 [2, 6]: 6.54
CC(=O)N[C@H]1CSSC[C@@H](C(N)=O)NC(=O)[C@H](Cc2ccccc2)NC(=O)[C@H](CCCNC(=N)N)NC(=O)[C@@H](Cc2ccccc2)NC(=O)[C@H](CCCNC(N)=O)NC(=O)CNC1=O [CTX-1639, cyclo(Cys-Gly-Cit-D-Phe-Arg-Phe-Cys)] (Ac-CG[Cit][dF]RFC-NH2; disulfide 1-7 (inferred))	44%	2.82	88%	8.32	–	–	–	–	–	–	–	–	–
CC(=O)N[C@H]1CSSC[C@@H](C(N)=O)NC(=O)[C@H](Cc2c[nH]c3ccccc23)NC(=O)[C@H](CCCNC(=N)N)NC(=O)[C@@H](Cc2ccccc2)NC(=O)[C@H](CCCNC(=N)N)NC(=O)C(C)(C)NC1=O [CTX-1632, cyclo(Cys-Aib-Arg-D-Phe-Arg-Trp-Cys)] (Ac-C[Aib]R[dF]RWC-NH2; disulfide 1-7)	77%	36	105%	3.18	–	–	–	–	–	–	–	–	–
N=C(N)NCCC[C@@H]1NC(=O)[C@@H](Cc2ccccc2)NC(=O)[C@H](CCCNC(N)=O)NC(=O)CNC(=O)CSC[C@@H](C(N)=O)NC(=O)[C@H](Cc2ccccc2)NC1=O [CTX-1655, Thioether-cyclo(Gly-Cit-D-Phe-Arg-Phe-Cys)] ({CH2CO}-G[Cit][dF]RFC-NH2; thioether N-6)	–	Not active	–	Not active	–	–	–	–	–	–	–	–	pEC50 [1]: < 5.00; pEC50 [2, 6]: < 5.00
CC(=O)N[C@@H](CCCNC(=N)N)C(=O)N[C@H]1CSSC[C@@H](C(N)=O)NC(=O)[C@H](Cc2ccccc2)NC(=O)[C@H](CCCNC(=N)N)NC(=O)[C@@H](Cc2ccc(Br)cc2)NC(=O)[C@H](CCCNC(=N)N)NC(=O)[C@@H](C)NC1=O [CTX-1258, Arg-cyclo(Cys-D-Ala-Arg-D-Phe(4-Br)-Arg-Phe-Cys)] (Ac-RC[dA]R[dPhe(4-Br)]RFC-NH2; disulfide 2-8)	–	–	–	–	> 4 h	0.53	0.5	0.5	36%	0.53	3.04	92%	pEC50 ([2]; hMC4R stable cell line): 8.62
